This is an account of results in US20170312221A1, “PHARMACEUTICAL PREPARATION AND METHOD OF ITS PRODUCTION AND USE” (priority 2014, published 2017).

Assay in all cases: minimum inhibitory concentration
Type in all cases: cell-based

For assay [1], the system named is Streptococcus pyogenes 421.
The test system of assay [2] is Staphylococcus aureus ATCC 25923.
For another assay, the system named is Proteus vulgaris X.
The test system of assay [3] is Escherichia coli NTCT 10418.

In the case of `C/C(=C\C(=O)OCCCCCCCCC(=O)O)C[C@@H]1OC[C@H](C[C@@H]2O[C@H]2[C@@H](C)[C@H](C)O)[C@@H](O)[C@H]1O` [Mupirocin], in assay [1], the “Minimum inhibitory concentration (MIC) Streptococcus pyogenes 421” value is given as 0.12. In addition, the “Minimum inhibitory concentration (MIC) Staphylococcus aureus ATCC 25923” value in assay [2] is given as 0.25. Moreover, in the assay on Proteus vulgaris X, the “Minimum inhibitory concentration (MIC) Proteus vulgaris X” value is recorded as 64. Also, the “Minimum inhibitory concentration (MIC) Escherichia coli NTCT 10418” value in assay [3] was found to be 128.
